Test results reported in patent publication US4347319A, “Microbiological epoxidation process” (priority 1980, dated 1982).
Read-outs that look alike come from different tables or passages of the source.

Key:
[1] = tested on: cell-free soluble extract of Methylobacterium organophilium CRL 26 (NRRL B 11,222); details: NAD added
Procedure: (§1) To prepare the cell-free secondary alcohol dehydrogenous (SADH) system, the washed cells were disrupted with a Wave Energy Ultrasonic Oscillator, Model W201 (Wave Energy System, Inc., Newtown, Pa.) and centrifuged at 20,000×g. for 30 minutes. […] The enzyme activity was measured with a fluorescence spectrophotometer (Perkin Elmer, Model MPF 44A) by following the formation of reduced NAD (EX 340 nm, Em 460 nm). The formation of reduced NAD was also followed with an absorption spectrophotometer at 340 nm. The assay system (3 ml.) contained: potassium phosphate buffer pH 7.0; 150 μmol.; NAD 1 μmol.; a given amount of enzyme preparation; and secondary alcohol 10 μmol. The reaction was started by the addition of substrate. One unit of enzyme activity represents the reduction of one μmole NAD per minute. Protein concentrations were determined by the Lowry method as referenced above.
(§2) The experimental procedure for the tests reported in Table XVII were as follows: 1 mg protein of crude extract was added into a 0.5 ml. 0.05 M phosphate buffer (pH 7.0) in a 10-ml. vial. […] The reaction mixture was incubated at 30° C. on a water bath. A 3 μl sample was removed with a syringe at 15 min. of incubation and was assayed with g.l.c. Catalytic activity was also assayed by fluorescence spectrophotometry.

[2] = tested on: cell-free soluble extract of Methylococcus capsulatus CRL M1 (NRRL B-11,219); details: NAD added
Procedure: as §1, §2

[3] = tested on: cell-free soluble extract of Methylosinus trichosporium OB3b (NRRL B-11,196); details: NAD added
Procedure: as §1, §2

[4] = tested on: methylotrophic microorganism strains of the present invention grown on methanol; test: Comparative test with methanol-grown washed cell suspensions; type: cell-based

CCC(C)O (stereo not shown) [2-Butanol]
Conversion Rate 2-butanol to 2-butanone ([1]; growth substrate CH3 OH): 2.5 nmoles/min/mg protein | Conversion Rate 2-butanol to 2-butanone ([1]; growth substrate CH4): 1.8 nmoles/min/mg protein | Conversion Rate 2-butanol to 2-butanone ([2]; growth substrate CH3 OH): 2.0 nmoles/min/mg protein | Conversion Rate 2-butanol to 2-butanone ([2]; growth substrate CH4): 3.2 nmoles/min/mg protein | Conversion Rate 2-butanol to 2-butanone ([3]; growth substrate CH3 OH): 2.4 nmoles/min/mg protein | Conversion Rate 2-butanol to 2-butanone ([3]; growth substrate CH4): 4.5 nmoles/min/mg protein

C [Methane]
hydroxylation / epoxidation ability [4]: did not possess the ability
